According to ChEMBL document CHEMBL1121984 (J Med Chem, 1982):
Active and inactive are the calls of the source. No cut-off for these calls is given here.

What was measured:
Felis catus [1] = assay: Inhibition of the positive chronotropic effect of stimulation of the cardioaccelerator nerve in the anesthetized cat.; assay type: functional, organism-based
Dopamine receptor [2] = molecular target: T1, Dopamine receptor (Bos taurus, UniProt Q95136+P20288); assay: Inhibitory binding activity against dopamine receptor using [3H]ADTN as the radioligand in striatal tissue of calf brain.; assay type: tissue-based, Striatum
Dopamine receptor [3] = molecular target: T1, Dopamine receptor; assay: Inhibitory binding activity against dopamine receptor using [3H]spiperone as the radioligand in striatal tissue of calf brain.; assay type: tissue-based, Striatum
Dopamine receptor [4] = molecular target: T1, Dopamine receptor; assay: Inhibitory binding activity against dopamine receptor using [3H]ADTN as the radioligand in striatal tissue of calf brain; assay type: tissue-based, Striatum
Dopamine receptor [5] = molecular target: T1, Dopamine receptor; assay: Inhibitory binding activity against dopamine receptor using [3H]spiperone as the radioligand in striatal tissue of calf brain; assay type: tissue-based, Striatum
Felis catus [6] = organism: Felis catus; assay: Inhibition of positive chronotropic effect of the cardioaccelerator was determined; assay type: functional; conditions: read-out: ID50 (the source's name)
Felis catus [7] = organism: Felis catus; assay: The compound was evaluated for its ability to inhibit the positive chronotropic effect of the cardioaccelerator; assay type: functional; conditions: read-out: ID50 (the source's name)
[8] = The compound was tested for its emetic activity in dog, activity expressed as potency ratio.; assay type: functional
Felis catus [9] = assay: The compounds were evaluated for their ability to inhibit the positive chronotropic effect of stimulation of the cardioaccelerator nerve in the anesthetized cat; assay type: functional; conditions: read-out: ID50 (the source's name)
Canis familiaris = assay: Effective dose for emetic activity after administration to dog; assay type: functional; conditions: Canis lupus familiaris

In the case of COc1cc2c(cc1OC)CC(NC(C)C)C2, the ID50 (Felis catus [1]) is reported as “inactive”.

In the case of COc1cc2c(cc1OC)CC(N(C)C)C2.Cl, the ID50 (Felis catus [1]) is reported as “inactive”, the IC50 (Dopamine receptor [2]) is reported as 400 µM and the IC50 (Dopamine receptor [3]) is reported as 50 µM.

For CCNC1Cc2ccc(OC)c(OC)c2C1 (configuration not stated), the ID50 (Felis catus [1]) was “inactive”.

For Br.CN(C)C1Cc2ccc(O)c(O)c2C1 (configuration not stated), the ID50 (Felis catus [1]) was “Increased heart rate”, the IC50 (Dopamine receptor [4]) was 10 µM and the IC50 (Dopamine receptor [5]) was 91 µM.

For COc1ccc2c(c1OC)CC(N(C)C)C2 (configuration not stated), the ID50 (Felis catus [1]) was “inactive”, the IC50 (Dopamine receptor [2]) was 2300 µM and the IC50 (Dopamine receptor [3]) was 100 µM.

In the case of CNC1Cc2ccc(O)c(O)c2C1 (configuration not stated), the ID50 (Felis catus [1]) is reported as “Increased heart rate at 3umol/kg”.

With CC(C)N(C)C1Cc2cc(O)c(O)cc2C1 the ID50 (Felis catus [1]) was “Increased heart rate at 3umol/kg”.

In the case of NC1Cc2cc(O)c(O)cc2C1, the ID50 (Felis catus [1]) is reported as “Increased heart rate at 3umol/kg”.

For CCCNC1Cc2ccc(O)c(O)c2C1 (configuration not stated), the ID50 (Felis catus [1]) was “inactive”.

With CC(C)NC1Cc2ccc(O)c(O)c2C1 (configuration not stated) the ID50 (Felis catus [1]) was “inactive”.

In the case of CCCN(CCC)C1Cc2cc(OC)c(OC)cc2C1.Cl, the ID50 (Felis catus [1]) is reported as “inactive” and the IC50 (Dopamine receptor [3]) is reported as 10.4 µM.

Work on CCNC1Cc2ccc(O)c(O)c2C1 (configuration not stated) yielded an ED50 (Felis catus [6]) greater than 1 µmol/kg.

With Br.CCN(CC)C1Cc2ccc(OC)c(OC)c2C1 (configuration not stated) the ID50 (Felis catus [1]) was “inactive”, the IC50 (Dopamine receptor [2]) was 1660 µM and the IC50 (Dopamine receptor [3]) was 29 µM.

With CCN(CC)C1Cc2cc(OC)c(OC)cc2C1 the ID50 (Felis catus [1]) was “inactive”.

With Br.CCN(CC)C1Cc2ccc(O)c(O)c2C1 (configuration not stated) the ED50 (Felis catus [7]) was 0.05 µmol/kg, the IC50 (Dopamine receptor [2]) was 39 µM and the IC50 (Dopamine receptor [3]) was 220 µM. For the same compound, the Potency ratio [8] was 0.26.

With Br.CN(C)C1Cc2cc(O)c(O)cc2C1 the ID50 (Felis catus [1]) was “Increased heart rate”, the IC50 (Dopamine receptor [2]) was 6 µM and the IC50 (Dopamine receptor [3]) was 104 µM.

For CNC1Cc2cc(OC)c(OC)cc2C1, the ID50 (Felis catus [1]) was “inactive”.

In the case of COc1cc2c(cc1OC)CC(N(C)C(C)C)C2, the ID50 (Felis catus [1]) is reported as “inactive”.

For NC1Cc2ccc(O)c(O)c2C1 (configuration not stated), the ID50 (Felis catus [1]) was “Increased heart rate at 3umol/kg”.

For CC(C)NC1Cc2cc(O)c(O)cc2C1, the ID50 (Felis catus [1]) was “Increased heart rate at 3umol/kg”.

Br.CCCN(CCC)C1Cc2ccc(O)c(O)c2C1 (configuration not stated) gave an ED50 (Felis catus [7]) of 0.02 µmol/kg, an IC50 (Dopamine receptor [2]) of 10 µM and an IC50 (Dopamine receptor [3]) of 53.86 µM. It also gave a Potency ratio [8] of 1.24.

With CCCNC1Cc2ccc(OC)c(OC)c2C1.Cl (configuration not stated) the ID50 (Felis catus [1]) was “inactive”, the IC50 (Dopamine receptor [2]) was 51000 µM and the IC50 (Dopamine receptor [3]) was 105 µM.

With CNC1Cc2cc(O)c(O)cc2C1 the ID50 (Felis catus [1]) was “Increased heart rate at 3umol/kg”.

For COc1ccc2c(c1OC)CC(N)C2 (configuration not stated), the ID50 (Felis catus [1]) was “inactive”.

Compound NCCc1ccc(O)c(O)c1 [DOPAMINE] has an ED50 (Felis catus [6]) of 0.105 µmol/kg.

CN1C[C@H](CC#N)C[C@@H]2c3cccc4[nH]c(Cl)c(c34)C[C@H]21 [LERGOTRILE] gave an ED50 (Felis catus [9]) of 0.27 µmol/kg, an IC50 (Dopamine receptor [2]) of 4.5 µM and an IC50 (Dopamine receptor [3]) of 23.7 µM.

CN1CCc2cccc3c2[C@H]1Cc1ccc(O)c(O)c1-3 [APOMORPHINE] showed an ED50 (Felis catus [6]) of 0.022 µmol/kg and an ED50 (Canis familiaris) of 0.07 mg/kg.

For Br.CCN(CC)C1Cc2cc(O)c(O)cc2C1, the ID50 (Felis catus [1]) was “Increased heart rate” and the IC50 (Dopamine receptor [3]) was 246 µM.

In the case of CNC1Cc2ccc(OC)c(OC)c2C1 (configuration not stated), the ID50 (Felis catus [1]) is reported as “inactive”.

In the case of COc1ccc2c(c1OC)CC(NC(C)C)C2 (configuration not stated), the ID50 (Felis catus [1]) is reported as “inactive”.

With COc1cc2c(cc1OC)CC(N)C2 the ID50 (Felis catus [1]) was “inactive”.

In the case of Br.CCCN(CCC)C1Cc2cc(O)c(O)cc2C1, the ED50 (Felis catus [6]) is reported as greater than 3 µmol/kg, the IC50 (Dopamine receptor [2]) is reported as 412 µM and the IC50 (Dopamine receptor [3]) is reported as 17.6 µM.
